According to patent US11351130B2, “Prevention and reversal of inflammation induced DNA damage” (Indiana University Research and Technology Corporation, priority 2017, dated 2022):

How the values were obtained:
[1] = system: sensory neuronal cultures; test: Neuronal cell viability (trypan blue exclusion); assay type: cell-based
Description: (§1) Primary cultures of sensory neurons were harvested and maintained as previously described (Vasko et al., 2005). Briefly, adult male Sprague-Dawley rats (150-175 g; Harlan, Indianapolis, Ind.) were euthanized by CO2 asphyxiation and dorsal root ganglia (DRG) dissected from all spinal levels, transferred to into a collagenase solution (1 mg/ml), incubated for 1 hour at 37° C., then dissociated by mechanical agitation. Approximately 30,000 cells or 60,000 cells were plated into each well of 12-well or 6-well culture plates, respectively. All culture dishes were precoated with poly-D-lysine and laminin. Cells were maintained in F-12 media supplemented with 10% horse serum, 2 mM glutamine, 100 μg/ml Normocin™, 50 μg/ml penicillin, 50 μg/ml streptomycin, 50 μM 5-fluoro-2′-deoxyuridine (Invitrogen), 150 μM uridine, and 30 ng/ml of NGF in 3% CO2 at 37° C. Growth medium was changed every other day. Experiments were performed after cells were maintained in culture for 12-14 days.
Sensory neuronal culture trypan blue exclusion analysis was performed as previously described (Vasko et al., 2011). Cells were detached by adding a 0.05% trypsin-EDTA solution and media to each well. An equal volume of 0.4% (w/v) trypan blue in PBS was added to the cell suspension and the numbers of living cells (i.e., those that exclude the dye) were counted under a phase contrast microscope using a hemacytometer. Percent survival was calculated as the percent of live cells divided by the total cell number (including dead and live cells).

[2] = system: sensory neuronal cultures; test: phospho-H2AX immunoblotting in sensory neuronal cultures (Example 3); assay type: cell-based, rat
Description: as §1
Immunoblotting was performed as previously described (Kelley et al., 2014). Briefly, cells were lysed in RIPA buffer (Santa Cruz Biotechnology; Santa Cruz, Calif., USA) and protein was quantified using the Lowey assay. Proteins were separated by electrophoresis on a 4-12% SDS-polyacrylamide gel. The gel was transferred to a PVDF membrane and incubated overnight at 4° C. in Tris-buffered saline containing 0.1% Tween-20 (TBST) and 5% nonfat dry milk while gently agitating. Mouse monoclonal antihuman Ape1 antibodies (1:500), mouse monoclonal anti-phospho H2AX antibodies (1:1000), or (3-Actin monoclonal antibody (1:1000) were added to the blocking solution and incubated overnight at room temperature while gently agitating. Antibody binding was detected following appropriate secondary antibody methods using chemiluminescence. The density of the bands was measured using QUALITYONE® software from Bio-Rad (Hercules, Calif.) and data expressed as density normalized to actin.

APE1 [3] = target: T1, APE1 (Homo sapiens, UniProt P27695); test: AP endonuclease DNA repair assay; assay type: biochemical; details: APX2009 in the nanomolar range
Description: Inhibition or enhancement of APE1 DNA repair endonuclease activity was performed as previously described (Bapat et al., 2010). The APE1 repair activity assay was performed in a plate assay using two annealed oligonucleotides (5′-6-FAM-GCCCCC*[…]-3′ (SEQ ID NO:3) and 3′-Q-[…]-5′ (SEQ ID NO:4)) containing a quencher on one strand and a fluorescent 6-FAM label with tetrahydrofuran as an AP site mimic. Oligo cleavage at the AP mimic site results in 6-FAM release and detection. The fluorescence was read at five, one-minute intervals using a Tecan Ultra plate reader (Chemical Genomics Core, Indiana University School of Medicine). The rate of the reaction was used to determine the change in APE1 repair activity as compared to the vehicle control.

APE1 [4] = target: T1, APE1; test: redox APE1 electrophoretic mobility shift assay (EMSA); assay type: biochemical; design: Purified APE1 was reduced with 1.0 mM DTT for 10 minutes; details: read-out: redox inhibition IC50
Description: EMSAs were performed as described (Luo et al., 2012). Purified APE1 was reduced with 1.0 mM DTT for 10 minutes and diluted to a final concentration of 0.006 mM with 0.02 mM DTT in PBS. Reduced APE1 was added to EMSA reaction buffer (10 mM Tris (pH 7.5), 50 mM NaCl, 1 mM MgCl2, 1 mM EDTA, 5% [vol/vol] glycerol) with […] 0.007 mM protein mixture (1:1) of purified truncated c-Jun and c-Fos proteins containing DNA-binding domain and leucine zipper and incubated for 30 minutes at room temperature. The EMSA assay was performed as previously described (Luo et al., 2008; Nyland et al., 2010; Kelley et al., 2011; Luo et al., 2012).

NFκB = test: NF-κB luciferase reporter transactivation assay; assay type: cell-based; details: read-out: inhibition of NFκB binding to the reporter construct, IC50
Description: Reporter assays were performed as previously described (Georgiadis et al., 2008; Kelley et al., 2011; Cardoso et al., 2012b; Luo et al., 2012). Cells were transfected with NF-κB-Luciferase construct containing an NF-κB-response promoter and driving the expression of a luciferase gene and a Renilla luciferase control reporter vector pRL-CMV. After a 24-hour transfection period, cells were lysed, and Firefly and Renilla luciferase activities were assayed using Renilla luciferase activity for normalization. All of the transfection experiments were performed in triplicate and repeated at least three times in independent experiments. Data are expressed as mean±standard error from a representative experiment, and Student's t tests were performed.

[5] = system: sensory neurons in culture; assay type: cell-based, rat
Description: as §1
For release experiments, cell cultures were washed with HEPES buffer consisting of (in mM) 25 HEPES, 135 NaCl, 3.5 KCl, 2.5 CaCl2, 1 MgCl2, 3.3 D-glucose, and 0.1% bovine serum albumin, pH 7.4 and maintained at 37° C. They then were incubated for successive 10-minute intervals with 0.4 ml of HEPES buffer alone (basal release), with buffer containing 30 nM capsaicin, then with buffer alone (to assess return to basal release). After each incubation, the buffer was removed and the amount of immunoreactive calcitonin-gene related peptide (CGRP) in each sample was measured using radioimmunoassay (RIA) as previously described (Chen et al., 1996). At the end of the release protocol, CGRP is extracted from the cultures and total content measured using RIA.

[6] = system: neuronal cultures derived from DRG; test: CGRP release from DRG neuronal cultures (Example 1); assay type: cell-based, rat; details: for capsaicin-stimulated release of CGRP: 24 hours
Description: (§2) Dorsal root ganglia (DRG) were dissected from all spinal levels of adult male (150-175 g) Sprague-Dawley rats (Envigo, Indianapolis, Ind.) and the cells were dissociated as previously described (Kelley et al., 2014). Briefly, the rats were euthanized by CO2 asphyxiation. DRGs were transferred into collagenase solution (1 mg/ml) and incubated for 1 hour at 37° C. The digested DRGs were then rinsed with growth medium, centrifuged and dissociated by mechanical agitation. Approximately 30,000 cells were plated into each well of 12-well culture plates. All culture dishes were precoated with poly-D-lysine and laminin. Cells were maintained in F-12 media supplemented with 10% horse serum, 2 mM glutamine, 100 μg/ml Normocin, 50 μg/ml penicillin, 50 μg/ml streptomycin, 50 μM 5-fluoro-2′-deoxyuridine, 150 μM uridine, and 30 ng/ml of NGF in 3% CO2 at 37° C. Growth medium was changed every other day.
(§3) Small interfering RNAs to APE1 (APE1siRNA) and scrambled siRNA (SCsiRNA) controls were used to decrease APE1 protein expression in sensory neuronal cell cultures and as controls, respectively, as described previously (Vasko et al., 2005, Jiang et al., 2008a). On day 3 in culture, the growth media was replaced with 0.5 ml of Opti-MEM 1 media containing 100 nM of APE1siRNA (5′-[…]-3′ (SEQ ID NO:1)) or SCsiRNA (5′-[…]-3′(SEQ ID NO:2)); (Vasko et al., 2005)) and 10 μl of the transfecting reagent, Neuroporter. On the next day, 0.5 ml of the growth media without antibiotics was added to each well, and after an additional 24 hours the media containing siRNA was replaced with normal growth media.
(§4) Lentiviral constructs containing (1) the CMV promoter, HA-tagged APE1, IRES, and enhanced green fluorescent protein (EGFP); or (2) CMV, IRES, and EGFP were developed. DNA sequencing confirmed the constructs in the pLenti6-R4R2-V5 plasmid containing WT-, C65-, or 226+177-APE1-IRES-EGFP. For lentiviral infections, DRG cells were cultured 5 days before 150 pfu/cell of the lentivirus was added to the media. Two days later, the virus was removed and the cells grown an additional 5 days in regular media.
After neuronal cultures were treated with the appropriate drugs, the cultures were washed once with HEPES buffer consisting of (in mM) 25 HEPES, 135 NaCl, 3.5 KCl, 2.5 CaCl2, 1 MgCl2, 3.3 D-glucose, and 0.1% bovine serum albumin, pH 7.4 and maintained at 37° C. They were then incubated for successive 10-minute intervals with 0.4 ml of HEPES buffer alone (basal release), with buffer containing 30 nM capsaicin, then with buffer alone (to assess return to basal release). After each incubation, the buffer was removed and the amount of immunoreactive CGRP in each sample was measured using radioimmunoassay as previously described (Chen et al., 1996). After the release experiment, the cells in each well were in 0.4 ml of 0.1 M HCl10 minutes and an aliquot taken to measure total CGRP content in the cultures using radioimmunoassay. Total content (fmol/well) was calculated by adding the total amount released in all incubations to the amount measured in the cells. The release data is calculated as fmol released/well/10 minutes.

[7] = system: neuronal cultures derived from DRG; test: pH2A.X immunoblotting in DRG neuronal cultures (Example 1); assay type: cell-based, rat
Description: as §2, §3, §4
Tissues or cells were harvested, lysed in RIPA buffer (Santa Cruz Biotechnology; Santa Cruz, Calif., USA), sonicated, and cleared of cellular debris by centrifuging at 4000 RPM for 2 minutes. Protein was quantified using Lowry assay, and electrophoresed in a 12% SDS-polyacrylamide gel. After electrophoresis, proteins were transferred to a PVDF membrane, and blocked with Tris-buffered saline containing 0.1% Tween-20 (TBST) and 5% nonfat dry milk for 1 hour at room temperature while gently agitating. Mouse monoclonal antihuman Ape1 antibodies (1:1000), mouse monoclonal anti-phospho H2AX antibodies (1:1000), mouse monoclonal anti-vinculin antibody (1:1000), and anti-Hemagglutinin (HA) antibody were added to the blocking solution and incubated for 2 hours at room temperature while gently agitating. Antibody binding was detected following appropriate secondary antibody methods using chemiluminescence. The density of the bands was measured using Quantity One software from Bio-Rad (Hercules, Calif.) and data expressed as density normalized to vinculin.

T1 sequence (P27695 whole entry, species assumed): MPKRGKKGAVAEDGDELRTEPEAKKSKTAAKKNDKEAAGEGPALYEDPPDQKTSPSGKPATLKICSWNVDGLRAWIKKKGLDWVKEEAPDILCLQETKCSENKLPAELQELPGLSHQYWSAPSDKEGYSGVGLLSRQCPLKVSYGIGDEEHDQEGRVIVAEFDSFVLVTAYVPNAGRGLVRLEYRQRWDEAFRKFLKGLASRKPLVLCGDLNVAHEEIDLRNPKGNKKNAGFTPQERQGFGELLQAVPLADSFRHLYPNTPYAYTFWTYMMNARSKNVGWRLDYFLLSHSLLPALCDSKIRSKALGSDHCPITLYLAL

Molecule: CCC/C(=C\C1=C(OC)C(=O)c2ccccc2C1=O)C(=O)N(C)C [APX2007, (2E)-2-[(3-methoxy-1,4-dioxo-1,4-dihydronapthalen-2-yl)methylidene]-N,N-dimethylpentanamide]
- effect on cisplatin-induced cell death ([1]; 20 μM for 48 hours prior to and throughout the cisplatin treatment (24 hours)): did not attenuate the cisplatin-induced cell death
- cell viability, drug alone ([1]; 40 μM, 24 hours): significant reduction in cell viability
- cell death, drug alone ([1]; 20 or 40 μM, 72 hours (data not shown)): significant increase in cell death
- effect on cisplatin-induced pH2AX levels (DNA damage) ([2]; 20 μM for 48 hours prior to and throughout exposure to 10 μM cisplatin): neither APX2007 nor APX2032 (20 μM) altered the ability of cisplatin to produce DNA damage
- APE1 repair (endonuclease) activity (APE1 [3]): no effect
- IC50 (APE1 [4]): 2 µM
- IC50 (NFκB): 7 µM
- effect on cisplatin-induced reduction in capsaicin-evoked CGRP release ([5]; 10 μM, 72 hour treatment, 10 μM cisplatin): did not prevent the cisplatin-induced reduction in release
- CGRP release, drug alone ([5]; 10 μM, 72 hours): did not affect CGRP release
- capsaicin-stimulated release of CGRP, drug alone ([5]; 20 μM, 72 hours): significant increase in capsaicin-stimulated release

Molecule: Cc1ccc2c(c1)C1(CCN(CCc3nc(-c4ccccc4)oc3C)CC1)OC(=O)N2 [RS 50493]
- effect on MCP-1-induced augmentation of CGRP release ([6]; 0.3 μg/ml MCP-1, RS 50493 1 μM): prevented
- effect on LPS-induced decrease in CGRP release ([6]; 3.0 μg/ml LPS, LPS-RS 2 μg/ml, RS 50493 1 μM): blocked the decrease in release induced by LPS
- pH2A.X expression relative to the expression elicited by MCP-1 alone ([7]; 0.3 μg/ml MCP-1 24 hr, RS 50493 1 μM): 8.5%
- reduction of LPS-induced increase in pH2A.X expression ([7]; 3.0 μg/ml LPS 24 hr, LPS-RS 2 μg/ml, RS 50493 1 μM, from 1 hour prior): 92.5 % reduction

Molecule: COc1cc(CNC(=O)CCCC/C=C/C(C)C)ccc1O [capsaicin]
- release of CGRP stimulated by capsaicin ([6]; 30 nM capsaicin, 10-minute period, no inflammatory mediator): approximately 10 % of the total content

Molecule: N.N.[Cl][Pt][Cl] [cisplatin, reference compound]
- levels of pH2AX ([2]; 10 μM cisplatin for 24 or 48 hours): significant increase in the levels of pH2AX

Molecule: MCP-1: Recombinant rat CCL2/MCP-1 protein
- CGRP release relative to the release in the absence of MCP-1 ([6]; 0.3 μg/ml MCP-1, 24 hours): 142.8%
- capsaicin-stimulated release of CGRP ([6]; 0.3 μg/ml): 13.0±0.8 % of total content
- capsaicin-stimulated release of CGRP ([6]; 1.0 μg/ml): 15.0±1.0 % of total content
- capsaicin-stimulated release of CGRP ([6]; 10.0 μg/ml): 6.3±1.0 % of total content
- release of CGRP stimulated by capsaicin ([6]; APE1siRNA-treated cultures, MCP-1 0.3 μg/ml): caused a decrease in CGRP release
- release of CGRP stimulated by capsaicin ([6]; SCsiRNA-treated cultures, MCP-1 0.3 μg/ml): enhanced the release of CGRP
- total content of CGRP compared with vehicle ([6]; data not shown): similar
- levels of pH2A.X over time ([7]; LPS 1 μg/ml, MCP-1 100 ng/ml): induced pH2A.X expression
- onset of pH2A.X increase ([7]; LPS 1 μg/ml, MCP-1 100 ng/ml): 16 hours
- peak of pH2A.X increase ([7]; LPS 1 μg/ml, MCP-1 100 ng/ml): 24 hours
- pH2A.X expression ([7]; SCsiRNA-treated cultures, 24 hours, LPS 3 μg/ml, MCP-1 0.3 μg/ml): enhanced expression of pH2A.X
